Results from ChEMBL document CHEMBL4177686, “Depsidone and xanthones from Garcinia xanthochymus with hypoglycemic activity and the mechanism of promoting glucose uptake in L6 myotubes” (Bioorg Med Chem, 2017).
Activity calls are given as the source filed them. The rule behind the calls is not given here.

Experiments:
L6 [1] = assay: Cytotoxicity against rat L6 cells assessed as reduction in cell viability at 25 uM after 4 hrs by MTT assay; assay type: cell-based; conditions: l6, 4 h
L6 [2] = assay: Increase in glucose uptake in rat L6 cells at 25 uM after 4 hrs relative to control; assay type: functional
L6 [3] = assay: Increase in glucose uptake in rat L6 cells at <10 uM after 4 hrs; assay type: functional, cell-based
L6 [4] = assay: Activation of PI3K/AKT/AMPK in rat L6 cells transfected with mOrange dye-based IRAP assessed as increase in GLUT4 translocation at 25 uM measured every 5 mins for 30 mins by confocal microscopic analysis relative to basal control; assay type: cell-based
L6 [5] = assay: Increase in glucose uptake in rat L6 cells at 10 to 25 uM after 4 hrs; assay type: functional, cell-based
L6 [6] = assay: Activation of AMPK in rat L6 cells assessed as ACC phosphorylation at Ser 79 residues at 25 uM by Western blot analysis; assay type: cell-based
L6 [7] = assay: Activation of PI3K/AKT/AMPK in rat L6 cells transfected with mOrange dye-based IRAP assessed as increase in GLUT4 translocation at 25 uM measured every 5 mins for 30 mins post 30 mins AMPK inhibitor compound C treatment by confocal microscopic analysis; assay type: cell-based
L6 [8] = assay: Increase in glucose uptake in rat L6 cells at 25 uM treated for 4 hrs post 15 mins PI3K inhibitor wortmanin treatment; assay type: functional, cell-based
L6 [9] = assay: Cytotoxicity against rat L6 cells assessed as reduction in cell viability at 1 to 100 uM after 4 hrs by MTT assay; assay type: cell-based; conditions: l6, 4 h
[10] = molecular target: RAC-alpha serine/threonine-protein kinase (Rattus norvegicus) (UniProt P47196); assay: Induction of AKT phosphorylation at Ser 473 residues in rat L6 cells by Western blot analysis; assay type: cell-based
Chain of RAC-alpha serine/threonine-protein kinase (Rattus norvegicus) (P47196 whole entry): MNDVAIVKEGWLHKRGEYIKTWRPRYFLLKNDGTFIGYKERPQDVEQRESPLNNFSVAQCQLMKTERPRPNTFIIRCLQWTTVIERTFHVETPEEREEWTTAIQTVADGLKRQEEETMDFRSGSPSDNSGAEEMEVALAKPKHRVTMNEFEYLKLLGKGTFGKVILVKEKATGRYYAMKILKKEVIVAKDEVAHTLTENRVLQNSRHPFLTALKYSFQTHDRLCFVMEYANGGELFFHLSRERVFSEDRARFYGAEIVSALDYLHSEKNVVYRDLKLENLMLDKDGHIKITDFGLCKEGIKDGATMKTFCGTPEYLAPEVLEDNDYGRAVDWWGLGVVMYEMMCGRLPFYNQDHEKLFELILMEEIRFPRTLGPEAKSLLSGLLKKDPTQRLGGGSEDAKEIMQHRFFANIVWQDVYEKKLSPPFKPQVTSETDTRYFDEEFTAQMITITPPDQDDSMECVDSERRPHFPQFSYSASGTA

L6 [11] = assay: Induction of AMPK phosphorylation at […] residues in rat L6 cells at 25 uM by Western blot analysis; assay type: cell-based
L6 [12] = assay: Increase in glucose uptake in rat L6 cells at 25 to 100 uM after 4 hrs; assay type: functional, cell-based
L6 [13] = assay: Increase in glucose uptake in rat L6 cells at 25 uM treated for 4 hrs post 30 mins AMPK inhibitor compound C treatment; assay type: functional, cell-based
[14] = molecular target: RAC-alpha serine/threonine-protein kinase (Rattus norvegicus) (UniProt P47196); assay: Induction of AKT phosphorylation at Ser 473 residues in rat L6 cells at 12.5 to 25 uM by Western blot analysis; assay type: cell-based
[15] = molecular target: RAC-alpha serine/threonine-protein kinase (Rattus norvegicus) (UniProt P47196); assay: Activation of AKT in rat L6 cells assessed as GSK3beta phosphorylation at Ser 9 residues at 12.5 to 25 uM by Western blot analysis; assay type: cell-based
L6 [16] = assay: Activation of PI3K/AKT/AMPK in rat L6 cells transfected with mOrange dye-based IRAP assessed as increase in GLUT4 translocation at 25 uM measured every 5 mins for 30 mins post 15 mins PI3K inhibitor wortmanin treatment by confocal microscopic analysis; assay type: cell-based
L6 [17] = assay: Increase in glucose uptake in rat L6 cells at 25 uM after 2 to 4 hrs; assay type: functional, cell-based
L6 [18] = assay: Induction of AMPK phosphorylation at […] residues in rat L6 cells at 12.5 to 25 uM by Western blot analysis; assay type: cell-based
L6 [19] = assay: Increase in glucose uptake in rat L6 cells at 100 uM after 4 hrs; assay type: functional, cell-based
L6 [20] = assay: Activation of AMPK phosphorylation in rat L6 cells assessed as ACC phosphorylation at Ser 79 residues at 12.5 to 25 uM by Western blot analysis; assay type: cell-based
L6 [21] = assay: Increase in glucose uptake in rat L6 cells at 2 mM treated for 4 hrs post 30 mins AMPK inhibitor compound C treatment; assay type: functional, cell-based
L6 [22] = assay: Increase in glucose uptake in rat L6 cells at 2 mM after 4 hrs relative to control; assay type: functional

SMILES: CC(C)=CCC/C(C)=C/Cc1c(O)cc2c(c1O)C(=O)Oc1c(CC=C(C)C)cc(O)c(O)c1O2
- Activity (L6 [1]): Non-Toxic

SMILES: COc1cc(O)c2c(=O)c3cccc(O)c3oc2c1
- Activity (L6 [1]): Non-Toxic

SMILES: COc1c2c(c(O)c3c(=O)c4c(O)ccc(O)c4oc13)C=CC(C)(C)O2
- Activity (L6 [1]): Non-Toxic

SMILES: COc1c(O)ccc2c(=O)c3c(O)ccc(OC)c3oc12
- Activity (L6 [1]): Non-Toxic

SMILES: CC1(C)C=Cc2c(cc3oc4c(O)cccc4c(=O)c3c2O)O1
- Activity (L6 [1]): Non-Toxic

SMILES: C=CC(C)(C)c1cc(O)c2oc3c(O)cccc3c(=O)c2c1O
- Activity (L6 [2]): 208.4%
- Activity (L6 [3]): inactive
- Activity (L6 [4]): Active
- Activity (L6 [5]): Active
- Activity (L6 [6]): Active
- Activity (L6 [7]): inactive
- Activity (L6 [8]): inactive
- Activity (L6 [9]): Non-Toxic
- Activity [10]: Dose-dependent effect
- Activity (L6 [11]): Active
- Activity (L6 [12]): inactive
- Activity (L6 [13]): Active
- Activity [14]: Active
- Activity (L6 [1]): Non-Toxic
- Activity [15]: Active
- Activity (L6 [16]): inactive
- Activity (L6 [17]): Active

SMILES: CC1(C)C=Cc2c(c(O)c3oc4ccc(O)cc4c(=O)c3c2O)O1
- Activity (L6 [1]): Non-Toxic

SMILES: CC(C)=CCc1c(O)c(O)c2oc3c(CC=C(C)C)c(O)cc(O)c3c(=O)c2c1CC=C(C)C
- Activity (L6 [1]): Non-Toxic

SMILES: CC(C)=CCC/C(C)=C/Cc1cc2c(=O)c3c(O)cc(O)cc3oc2c(O)c1O
- Activity (L6 [2]): inactive
- Activity (L6 [1]): Non-Toxic

SMILES: CC(C)=CCc1c(O)c(O)c2oc3c(O)ccc(O)c3c(=O)c2c1CC=C(C)C
- Activity (L6 [1]): Non-Toxic

SMILES: CC(C)=CCC/C(C)=C/Cc1c(O)c(O)c2oc3cc(O)cc(O)c3c(=O)c2c1CCC(C)(C)O
- Activity (L6 [1]): Non-Toxic

SMILES: CC1(C)C=Cc2c(c(O)c3oc4c(O)ccc(O)c4c(=O)c3c2O)O1
- Activity (L6 [2]): inactive
- Activity (L6 [1]): Non-Toxic

SMILES: C=CC(C)(C)c1cc(O)c(O)c2c(=O)c3cc(CC=C(C)C)c(O)c(O)c3oc12
- Activity (L6 [2]): 166.2%
- Activity (L6 [3]): inactive
- Activity (L6 [4]): Active
- Activity (L6 [5]): Active
- Activity (L6 [18]): Active
- Activity (L6 [7]): inactive
- Activity (L6 [8]): Active
- Activity (L6 [9]): Non-Toxic
- Activity (L6 [19]): inactive
- Activity (L6 [20]): Active
- Activity (L6 [12]): inactive
- Activity (L6 [13]): Active
- Activity [14]: Active
- Activity (L6 [1]): Non-Toxic
- Activity [15]: Active
- Activity (L6 [16]): inactive
- Activity (L6 [17]): Active

SMILES: CN(C)C(=N)NC(=N)N [METFORMIN]
- Activity (L6 [21]): Active
- Activity (L6 [22]): 167.2%

SMILES: O=c1c2cccc(O)c2oc2ccc(O)c(O)c12
- Activity (L6 [1]): Non-Toxic

SMILES: CC(C)=CCc1c(O)c(O)c2oc3c(CC=C(C)C)c(O)cc(O)c3c(=O)c2c1CCC(C)(C)O
- Activity (L6 [1]): Non-Toxic

SMILES: CC(C)=CCc1c(O)c(O)c2oc3c4c(cc(O)c3c(=O)c2c1CC=C(C)C)OC(C)(C)C=C4
- Activity (L6 [2]): 195.28%
- Activity (L6 [1]): Non-Toxic

SMILES: CC(C)=CCc1cc(O)c(O)c2oc3cc(O)cc(O)c3c(=O)c12
- Activity (L6 [2]): inactive
- Activity (L6 [1]): Non-Toxic

SMILES: CC(C)=CCc1c(O)cc(O)c2c(=O)c3cccc(O)c3oc12
- Activity (L6 [1]): Non-Toxic

SMILES: COc1c(O)c(CC=C(C)C)cc2c(=O)c3c(O)ccc(O)c3oc12
- Activity (L6 [1]): Non-Toxic

SMILES: COc1c(O)ccc2oc3c(O)cccc3c(=O)c12
- Activity (L6 [1]): Non-Toxic
